Measured values reported in patent publication US5959130A, “Castor based benzoate esters” (Finetex, Inc., priority 1997, dated 1999).

Legend:
[1] = organoleptic evaluation of tactile characteristics on the forearm, Table VII; assay type: in vivo, individuals; details: rating, 1 = Worst 5 = Best
Procedure: The tactile characteristics of the novel benzoate esters of the invention were determined by applying the appropriate material, neat or as a dilution with another emollient ester, lanolin or […]. The properties were evaluated organoleptically after application to the interior surface of the forearm.

[2] = viscosity readings of titanium dioxide dispersions, Table VI B; assay type: physicochemical; details: for Viscosity reading of dispersion: Brookfield LVT-D @ 12 RPM, TiO2 50%
[3] = Hagman readings (particle size), titanium dioxide dispersion, Table VI A; assay type: physicochemical; details: for Hagman reading (particle size): TiO2 50%
Procedure: (§1) The novel benzoate esters of the invention were tested for pigment and dye dispersing efficacy. Color pastes were prepared by dispersing dry pigment into the oil phase while hand stirring and then passing each mixture through a three roll mill six times, collecting a 16 oz. sample after each pass. The samples collected were subjected to particle size measurements.

[4] = viscosity readings of Red No. 21 dispersions, Table VI B; assay type: physicochemical; details: for Viscosity reading of dispersion: Brookfield LVT-D @ 12 RPM, Red No. 21 35%
[5] = sunscreen solubility: PARSOL 1789, Table IV B; assay type: physicochemical
From the text: (§2) These two sunscreens are difficult to dissolve and keep in solution for use in sunscreen formulations for optimal SPF (sun-protection factors). Higher solvency for a sunscreen ingredient is desirable as it allows higher concentrations of the sunscreen active ingredient in a formulation. This advantageously raises the SPF ratings for the formulation. The liquid organic sunscreens that are commonly used are octyl-methoxy cinnamate (OMC) and octyl salicylate (OS).
(§3) Solubility/Solvency Tables IVA and IVB show the solubility and concentrations of the sunscreen ingredient in the novel esters of the invention compared to their precursor raw materials (non-benzoate esters).

[6] = sunscreen solubility: Benzophenone-3, Table IV A; assay type: physicochemical
From the text: as §2, §3

[7] = physical properties of benzoate esters compared to precursors, Table II; assay type: physicochemical; details: for VISCOSITY: Brookfield Viscometer, Spindle # 1, 10 rpm
From the text: Absence of odor is an important factor in consumer acceptance of cosmetic and toiletry products.

[8] = Hagman readings (particle size), Red No. 6 Barium Lake dispersion, Table VI A; assay type: physicochemical; details: Red No. 6 Barium Lake 35%
Procedure: as §1

[9] = Hagman readings (particle size), Red No. 21 dispersion, Table VI A; assay type: physicochemical; details: Red No. 21 35%
Procedure: as §1

[10] = in specific ratios
From the text: The aforedescribed benzoate esters have unique properties that make them particularly suited for use as emollient carriers for cosmetic ingredients. […] Parsol® is a registered trademark of Givaudan Corp. of Clifon, N.J.

[11] = Gardnor scale
[12] = 23° C., 10 gms sunscreen in 100 gms mixture
[13] = 30° C., 10 gms sunscreen in 100 gms mixture
[14] = 30° C., 15 gms sunscreen in 100 gms mixture
[15] = 23° C., 15 gms sunscreen in 100 gms mixture

CCCCCCC(CC=CCCCCCCCC(=O)OCC(COC(=O)CCCCCCCC=CCC(CCCCCC)OC(=O)c1ccccc1)OC(=O)CCCCCCCC=CCC(CCCCCC)OC(=O)c1ccccc1)OC(=O)c1ccccc1 (stereo not drawn) [BCO, Benzoic acid ester of glyceryl tri-ricinoleate]
GREASINESS/OILINESS [1]: 4
OVERALL TACTILITY [1]: 3
SPREADABILITY [1]: 4
TACK [1]: 2
viscosity of TiO2 dispersions (in words) [2]: much lower viscosity
Viscosity reading of dispersion ([2]; pass 1): 6552 cps
Viscosity reading of dispersion ([2]; pass 2): 7176 cps
Viscosity reading of dispersion ([2]; pass 3): 7800 cps
Viscosity reading of dispersion ([2]; pass 4): 7332 cps
Viscosity reading of dispersion ([2]; pass 5): 7176 cps
Viscosity reading of dispersion ([2]; pass 6): 6786 cps
Hagman reading (particle size) ([3]; pass 1): ≤ 30 μm
Hagman reading (particle size) ([3]; pass 2): ≤ 26 μm
Hagman reading (particle size) ([3]; pass 3): ≤ 20 μm
Hagman reading (particle size) ([3]; pass 4): ≤ 10 μm
Hagman reading (particle size) ([3]; pass 5): ≤ 10 μm
Hagman reading (particle size) ([3]; pass 6): ≤ 8 μm
Viscosity reading of dispersion ([4]; pass 1): > 15,600 cps
Viscosity reading of dispersion ([4]; pass 2): > 15,600 cps
Viscosity reading of dispersion ([4]; pass 3): > 15,600 cps
Viscosity reading of dispersion ([4]; pass 4): > 15,600 cps
Viscosity reading of dispersion ([4]; pass 5): > 15,600 cps
Viscosity reading of dispersion ([4]; pass 6): > 15,600 cps
Sunscreen solubility (Parsol 1789) [5, 12]: +
Sunscreen solubility (Parsol 1789) ([5]; 30° C., 5 gms sunscreen in 100 gms mixture): +
Sunscreen solubility (Parsol 1789) [5, 13]: +
Sunscreen solubility (Parsol 1789) [5, 14]: +
Sunscreen solubility (Benzophenone-3) [6, 12]: +
Sunscreen solubility (Benzophenone-3) [6, 15]: +
Sunscreen solubility (Benzophenone-3) [6, 13]: +
Sunscreen solubility (Benzophenone-3) [6, 14]: +
S.G. (specific gravity) ([7]; 25° C.): 0.982
VISCOSITY [7]: 937 cps
Hagman reading (particle size) ([8]; pass 1): ≤ 49 μm
Hagman reading (particle size) ([8]; pass 2): ≤ 45 μm
Hagman reading (particle size) ([8]; pass 3): ≤ 42 μm
Hagman reading (particle size) ([8]; pass 4): ≤ 40 μm
Hagman reading (particle size) ([8]; pass 5): ≤ 36 μm
Hagman reading (particle size) ([8]; pass 6): ≤ 33 μm
Hagman reading (particle size) ([9]; pass 1): ≤ 39 μm
Hagman reading (particle size) ([9]; pass 2): ≤ 30 μm
Hagman reading (particle size) ([9]; pass 3): ≤ 26 μm
Hagman reading (particle size) ([9]; pass 4): ≤ 14 μm
Hagman reading (particle size) ([9]; pass 5): ≤ 12 μm
Hagman reading (particle size) ([9]; pass 6): ≤ 10 μm
miscibility with Parsol 1789 [10]: miscible
miscibility with benzophenone-3 [10]: miscible

CCCCCCCCCCCCCCCCOC(=O)CCCCCCCC=CCC(CCCCCC)OC(=O)c1ccccc1 (stereo not drawn) [BCR, benzoic acid ester of cetyl-ricinoleate]
GREASINESS/OILINESS [1]: 4
OVERALL TACTILITY [1]: 4
SPREADABILITY [1]: 3
TACK [1]: 3
viscosity of TiO2 dispersions (in words) [2]: much lower viscosity
Viscosity reading of dispersion ([2]; pass 1): 1794 cps
Viscosity reading of dispersion ([2]; pass 2): 1872 cps
Viscosity reading of dispersion ([2]; pass 3): 2028 cps
Viscosity reading of dispersion ([2]; pass 4): 2028 cps
Viscosity reading of dispersion ([2]; pass 5): 2028 cps
Viscosity reading of dispersion ([2]; pass 6): 1950 cps
Hagman reading (particle size) ([3]; pass 1): ≤ 30 μm
Hagman reading (particle size) ([3]; pass 2): ≤ 30 μm
Hagman reading (particle size) ([3]; pass 3): ≤ 21 μm
Hagman reading (particle size) ([3]; pass 4): ≤ 18 μm
Hagman reading (particle size) ([3]; pass 5): ≤ 10 μm
Hagman reading (particle size) ([3]; pass 6): ≤ 10 μm
particle size reduction vs precursor CR (in words) ([3]; third pass and onwards): better reduction of particle size
viscosity of Red No. 21 dispersion (in words) [4]: excellent low viscosity dispersion
Viscosity reading of dispersion ([4]; pass 1): 4602 cps
Viscosity reading of dispersion ([4]; pass 2): 4368 cps
Viscosity reading of dispersion ([4]; pass 3): 4212 cps
Viscosity reading of dispersion ([4]; pass 4): 4134 cps
Viscosity reading of dispersion ([4]; pass 5): 4290 cps
Viscosity reading of dispersion ([4]; pass 6): 4368 cps
Sunscreen solubility (Parsol 1789) [5, 12]: +
Sunscreen solubility (Parsol 1789) [5, 15]: +
Sunscreen solubility (Parsol 1789) [5, 13]: +
Sunscreen solubility (Parsol 1789) [5, 14]: +
Sunscreen solubility (Benzophenone-3) [6, 12]: +
Sunscreen solubility (Benzophenone-3) [6, 15]: +
Sunscreen solubility (Benzophenone-3) [6, 13]: +
Sunscreen solubility (Benzophenone-3) [6, 14]: +
S.G. (specific gravity) ([7]; 25° C.): 0.915
VISCOSITY [7]: 80 cps
Hagman reading (particle size) ([8]; pass 1): ≤ 53 μm
Hagman reading (particle size) ([8]; pass 2): ≤ 50 μm
Hagman reading (particle size) ([8]; pass 3): ≤ 46 μm
Hagman reading (particle size) ([8]; pass 4): ≤ 33 μm
Hagman reading (particle size) ([8]; pass 5): ≤ 30 μm
Hagman reading (particle size) ([8]; pass 6): ≤ 27 μm
Hagman reading (particle size) ([9]; pass 1): ≤ 34 μm
Hagman reading (particle size) ([9]; pass 2): ≤ 26 μm
Hagman reading (particle size) ([9]; pass 3): ≤ 20 μm
Hagman reading (particle size) ([9]; pass 4): ≤ 12 μm
Hagman reading (particle size) ([9]; pass 5): ≤ 8 μm
Hagman reading (particle size) ([9]; pass 6): ≤ 6 μm

CCCCCCC(CCCCCCCCCCC(=O)OCC(COC(=O)CCCCCCCCCCC(CCCCCC)OC(=O)c1ccccc1)OC(=O)CCCCCCCCCCC(CCCCCC)OC(=O)c1ccccc1)OC(=O)c1ccccc1 (stereo not drawn) [BHCO, Benzoic acid ester of glyceryl-trihydroxy stearate]
GREASINESS/OILINESS [1]: 4
OVERALL TACTILITY [1]: 3
SPREADABILITY [1]: 3
TACK [1]: 3

CCCCCCC(CCCCCCCCCCC(=O)OCC(CC)CCCC)OC(=O)c1ccccc1 (stereo not drawn) [BOHS, benzoic acid ester of 2 ethyl hexyl 12-hydroxy stearate]
GREASINESS/OILINESS [1]: 4
OVERALL TACTILITY [1]: 3
SPREADABILITY [1]: 4
TACK [1]: 3
viscosity of TiO2 dispersions (in words) [2]: much lower viscosity
Viscosity reading of dispersion ([2]; pass 1): 1170 cps
Viscosity reading of dispersion ([2]; pass 2): 1170 cps
Viscosity reading of dispersion ([2]; pass 3): 1326 cps
Viscosity reading of dispersion ([2]; pass 4): 1326 cps
Viscosity reading of dispersion ([2]; pass 5): 1326 cps
Viscosity reading of dispersion ([2]; pass 6): 1326 cps
Hagman reading (particle size) ([3]; pass 1): ≤ 20 μm
Hagman reading (particle size) ([3]; pass 2): ≤ 14 μm
Hagman reading (particle size) ([3]; pass 3): ≤ 14 μm
Hagman reading (particle size) ([3]; pass 4): ≤ 10 μm
Hagman reading (particle size) ([3]; pass 5): ≤ 9 μm
Hagman reading (particle size) ([3]; pass 6): ≤ 8 μm
Sunscreen solubility (Parsol 1789) [5, 12]: +
Sunscreen solubility (Parsol 1789) [5, 15]: +
Sunscreen solubility (Parsol 1789) [5, 13]: +
Sunscreen solubility (Parsol 1789) [5, 14]: +
Sunscreen solubility (Benzophenone-3) [6, 12]: +
Sunscreen solubility (Benzophenone-3) [6, 15]: +
Sunscreen solubility (Benzophenone-3) [6, 13]: +
Sunscreen solubility (Benzophenone-3) [6, 14]: +
S.G. (specific gravity) ([7]; 25° C.): 0.928
TITER ([7]; 25° C.): clear
VISCOSITY [7]: 110 cps

CCCCCCC(CCCCCCCCCCC(=O)OCC(COC(=O)CCCCCCCCCCC(CCCCCC)OC(=O)c1ccccc1)OC(=O)CCCCCCCCCCC(CCCCCC)OC(=O)c1ccccc1)OC(=O)c1ccccc1 (stereo not drawn) [Example 6, Castor Wax MP-80 Benzoate]
Color [11]: 3

CCCCCCC(CCCCCCCCCCC(=O)OCC(COC(=O)CCCCCCCCCCC(CCCCCC)OC(=O)c1ccccc1)OC(=O)CCCCCCCCCCC(CCCCCC)OC(=O)c1ccccc1)OC(=O)c1ccccc1 (stereo not drawn) [Example 7, Castor Wax MP-80 Benzoate]
Color [11]: 3

CCCCCCCCCCCCCCCCOC(=O)CCCCCCCC=CCC(CCCCCC)OC(=O)c1ccccc1 (stereo not drawn) [Example 8, Benzoate Ester of Cetyl Ricinoleate]
Color [11]: 4

CCCCCCCCCCCCCCCCOC(=O)CCCCCCCC=CCC(CCCCCC)OC(=O)c1ccccc1 (stereo not drawn) [Example 9, Benzoate Ester of Cetyl Ricinoleate]
Color [11]: 4

CCCCCCCCCCCCCCCCOC(=O)CCCCCCCC=CCC(CCCCCC)OC(=O)c1ccccc1 (stereo not drawn) [Example 10, Benzoate Ester of Cetyl Ricinoleate]
Color [11]: 4

CCCCCCCCCCCCCCCCOC(=O)CCCCCCCC=CCC(CCCCCC)OC(=O)c1ccccc1 (stereo not drawn) [Example 11, Benzoate Ester of Cetyl Ricinoleate]
Color [11]: 4

CCCCCCC(O)CCCCCCCCCCC(=O)OCC(CC)CCCC (stereo not drawn) [OHS, octyl hydroxystearate, reference compound]
Sunscreen solubility (Parsol 1789) [5, 12]: +
Sunscreen solubility (Parsol 1789) [5, 13]: +
Sunscreen solubility (Parsol 1789) [5, 14]: +
Sunscreen solubility (Benzophenone-3) [6, 12]: +
Sunscreen solubility (Benzophenone-3) [6, 13]: +
Sunscreen solubility (Benzophenone-3) [6, 14]: +
